From paper PMC6504997 (ACS chemical biology, 2018)

Target: EXOSC3 (GST-EXOSC3, EXOSC3-WT) (Homo sapiens, UniProt Q9NQT5)
Experiment: MST, inhibition of RNA binding
Conditions: 3.12 μM long G-rich RNA (GGGAGGGAGGGAGAGGGA)

EXOSC3 (GST-EXOSC3, EXOSC3-WT), sequence (Q9NQT5 whole entry): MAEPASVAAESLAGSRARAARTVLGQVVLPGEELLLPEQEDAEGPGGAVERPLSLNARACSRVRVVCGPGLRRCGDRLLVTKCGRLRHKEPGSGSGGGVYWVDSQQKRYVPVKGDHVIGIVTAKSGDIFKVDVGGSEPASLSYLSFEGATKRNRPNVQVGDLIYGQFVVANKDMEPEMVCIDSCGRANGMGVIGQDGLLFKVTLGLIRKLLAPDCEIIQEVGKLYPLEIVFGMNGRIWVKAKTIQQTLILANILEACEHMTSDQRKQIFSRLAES

% inhibition at 50 μM: 54 ± 10%
SMILES: CC(C)(O)CCc1cccc(C(=O)N2Cc3ccccc3C(O)C2)c1 (stereo not shown) [ERD03, EXOSC3-RNA disrupting (ERD) compound 3]
